Test results from patent US11807625B2, “Capsid inhibitors for the prevention of HIV” (Gilead Sciences, Inc., priority 2019, dated 2023).

Assay: PK of compound of Formula (Ia) after single subcutaneous dose of solution formulations in Wistar Han rats
Assay type: in vivo
Conditions: male, Wistar Han, rat, plasma, sc, 50 mg/kg, Wistar Han rats, SC 50 mg/kg
Experimental: Formulations containing the compound of Formula (Ia), or a pharmaceutically acceptable salt thereof, were prepared as solutions and optionally administered subcutaneously or intramuscularly to rats, rabbits, and/or dogs.
(§1) A solution of about 400 mg/mL of the compound of Formula (Ia) having 19.14 w/w % water, 40.66 w/w % PEG 300, 35.20 w/w % of a sodium salt of a compound of Formula (Ia), and 5.00% ethanol was prepared. The solution was administered subcutaneously to male Wistar Han rats at a dose level of about 50 mg/kg and dose volume of 0.125 mL/kg and the pharmacokinetic (PK) profile was determined.
as §1, with “500” for “400”, “16.64” for “19.14”, “35.36” for “40.66”, “43.00” for “35.20”, “0.1” for “0.125”
(§2) A solution of about 400 mg/mL of the compound of Formula (Ia) having 17.00 w/w % water, 36.40 w/w % PEG 300, 35.20 w/w % of a sodium salt of a compound of Formula (Ia), 5.00 w/w % ethanol, and 6.40 w/w % poloxamer 188 was prepared. The solution was administered subcutaneously to male beagle dogs at a dose level of about 12 mg/kg and male Wistar Han rats at a dose level of about 50 mg/kg. The pharmacokinetic profiles were determined, and the results for dogs are summarized in Table and Table, while the results for rats are summarized in Table and Table below.
as §2, with “500” for “400”, “14.06” for “17.00”, “30.12” for “36.40”
A solution of about 300 mg/mL of the compound of Formula (Ia) having 23.33 w/w % water, 48.99 w/w % PEG 300, 26.47 w/w % of a sodium salt of a compound of Formula (Ia), and 1.21 w/w % poloxamer 188 was prepared. The solution was administered subcutaneously to male beagle dogs at a dose level of about 6 mg/kg and male Wistar Han rats at a dose level of about 50 mg/kg. The pharmacokinetic profiles were determined, and the results for dogs are summarized in Table and Table, while the results for rats are summarized in Table and Table below.
as §2, with “18.80” for “17.00”, “40.25” for “36.40”, “34.38” for “35.20”, “1.57” for “6.40”
as §2, with “500” for “400”, “16.29” for “17.00”, “34.88” for “36.40”, “41.92” for “35.20”, “1.91” for “6.40”
A solution of about 400 mg/mL of the compound of Formula (Ia) having 20.90 w/w % water, 44.72 w/w % PEG 300, and 34.38 w/w % of a sodium salt of a compound of Formula (Ia) was prepared. […]

[1] = 400 mg/mL solution AA (6.25% poloxamer 188), Mean n = 4
[2] = 400 mg/mL solution W (5.00% ethanol, 1.57% poloxamer 188), Mean n = 3
[3] = 400 mg/mL solution W (5.00% ethanol, 1.57% poloxamer 188), animals #1-#3
[4] = 400 mg/mL solution Y (water, PEG 300), Mean n = 4
[5] = 400 mg/mL solution Y (water, PEG 300), animals #1-#4
[6] = 400 mg/mL solution Z (3.13% poloxamer 188), Mean n = 4
[7] = 400 mg/mL solution Z (3.13% poloxamer 188), animals #1-#4
[8] = 400 mg/mL solution Z (3.13% poloxamer 188), Mean (#2 NS)
[9] = 400 mg/mL solution Z (3.13% poloxamer 188), animals #1, #3, #4 (#2 NS)
[10] = 500 mg/mL solution X (5.00% ethanol, 1.91% poloxamer 188), Mean n = 3
[11] = 500 mg/mL solution X (5.00% ethanol, 1.91% poloxamer 188), animals #1-#3

SMILES: CC(C)(C#Cc1ccc(-c2ccc(Cl)c3c(NS(C)(=O)=O)nn(CC(F)(F)F)c23)c([C@H](Cc2cc(F)cc(F)c2)NC(=O)Cn2nc(C(F)(F)F)c3c2C(F)(F)[C@@H]2C[C@H]32)n1)S(C)(=O)=O [compound of Formula (Ia)]
- concentration at 2016 h [1]: 78.2 nM
- concentration at 2352 h [1]: 75.4 nM
- concentration at 2688 h [1]: 74.6 nM
- concentration at 3024 h [1]: 69.8 nM
- concentration at 3360 h [1]: 64.1 nM
- concentration at 3696 h [1]: 65.7 nM
- concentration at 1 h [2]: 30.6 nM
- concentration at 3 h [2]: 53.4 nM
- concentration at 8 h [2]: 76.9 nM
- concentration at 24 h [2]: 120 nM
- concentration at 24 h [3]: 127 nM
- concentration at 48 h [2]: 152 nM
- concentration at 48 h [3]: 128 nM
- concentration at 72 h [2]: 152 nM
- concentration at 72 h [3]: 112 nM
- concentration at 96 h [2]: 138 nM
- concentration at 96 h [3]: 98.6 nM
- concentration at 168 h [2]: 118 nM
- concentration at 168 h [3]: 80 nM
- concentration at 336 h [2]: 171 nM
- concentration at 336 h [3]: 123 nM
- concentration at 504 h [2]: 248 nM
- concentration at 504 h [3]: 194 nM
- concentration at 672 h [2]: 261 nM
- concentration at 672 h [3]: 217 nM
- concentration at 840 h [2]: 290 nM
- concentration at 840 h [3]: 273 nM
- concentration at 1008 h [2]: 239 nM
- concentration at 1008 h [3]: 176 nM
- concentration at 1344 h [2]: 305 nM
- concentration at 1344 h [3]: 260 nM
- concentration at 1680 h [2]: 261 nM
- concentration at 1680 h [3]: 206 nM
- concentration at 2016 h [2]: 201 nM
- concentration at 2016 h [3]: 163 nM
- concentration at 2352 h [2]: 162 nM
- concentration at 2352 h [3]: 164 nM
- concentration at 2688 h [2]: 173 nM
- concentration at 2688 h [3]: 170 nM
- concentration at 3024 h [2]: 131 nM
- concentration at 3024 h [3]: 145 nM
- concentration at 3360 h [2]: 129 nM
- concentration at 3360 h [3]: 151 nM
- concentration at 3696 h [2]: 107 nM
- concentration at 3696 h [3]: 133 nM
- concentration at 4032 h (400 mg/mL solution W (5.00% ethanol, 1.57% poloxamer 188), 4032 h, Mean n = 3): 97.5 nM
- concentration at 4704 h (400 mg/mL solution W (5.00% ethanol, 1.57% poloxamer 188), 4704 h, Mean n = 3): 57.9 nM
- concentration at 1 h [4]: 28.6 nM
- concentration at 1 h [5]: 28.7 nM
- concentration at 3 h [4]: 52.2 nM
- concentration at 3 h [5]: 51.3 nM
- concentration at 8 h [4]: 65.8 nM
- concentration at 8 h [5]: 62.1 nM
- concentration at 24 h [4]: 93.2 nM
- concentration at 24 h [5]: 72.1 nM
- concentration at 48 h [4]: 110 nM
- concentration at 48 h [5]: 83 nM
- concentration at 72 h [4]: 109 nM
- concentration at 72 h [5]: 87.1 nM
- concentration at 96 h [4]: 95.3 nM
- concentration at 168 h [4]: 85.7 nM
- concentration at 336 h [4]: 103 nM
- concentration at 504 h [4]: 131 nM
- concentration at 672 h [4]: 151 nM
- concentration at 840 h [4]: 158 nM
- concentration at 1008 h [4]: 162 nM
- concentration at 1344 h [4]: 159 nM
- concentration at 1680 h [4]: 132 nM
- concentration at 2016 h [4]: 117 nM
- concentration at 2352 h [4]: 118 nM
- concentration at 2688 h [4]: 119 nM
- concentration at 3024 h [4]: 105 nM
- concentration at 3360 h [4]: 95.2 nM
- concentration at 3696 h [4]: 90.4 nM
- concentration at 1 h [6]: 41.7 nM
- concentration at 3 h [6]: 70.3 nM
- concentration at 8 h [6]: 85.9 nM
- concentration at 24 h [6]: 144 nM
- concentration at 48 h [6]: 165 nM
- concentration at 72 h [6]: 163 nM
- concentration at 96 h [6]: 147 nM
- concentration at 168 h [6]: 135 nM
- concentration at 336 h [6]: 169 nM
- concentration at 504 h [6]: 166 nM
- concentration at 672 h [6]: 172 nM
- concentration at 672 h [7]: 163 nM
- concentration at 840 h [6]: 174 nM
- concentration at 1008 h [6]: 164 nM
- concentration at 1008 h [7]: 137 nM
- concentration at 1344 h [6]: 138 nM
- concentration at 1344 h [7]: 113 nM
- concentration at 1680 h [6]: 127 nM
- concentration at 1680 h [7]: 108 nM
- concentration at 2016 h [6]: 127 nM
- concentration at 2016 h [7]: 111 nM
- concentration at 2352 h [6]: 127 nM
- concentration at 2352 h [7]: 101 nM
- concentration at 2688 h [6]: 141 nM
- concentration at 2688 h [7]: 118 nM
- concentration at 3024 h [6]: 133 nM
- concentration at 3024 h [7]: 110 nM
- concentration at 3360 h [8]: 133 nM
- concentration at 3360 h [9]: 109 nM
- concentration at 3696 h [8]: 135 nM
- concentration at 3696 h [9]: 91.2 nM
- concentration at 1 h [10]: 46.8 nM
- concentration at 3 h [10]: 77.6 nM
- concentration at 3 h [11]: 89 nM
- concentration at 8 h [10]: 96.2 nM
- concentration at 8 h [11]: 115 nM
- concentration at 24 h [10]: 184 nM
- concentration at 24 h [11]: 164 nM
- concentration at 48 h [10]: 209 nM
- concentration at 48 h [11]: 209 nM
- concentration at 72 h [10]: 199 nM
- concentration at 72 h [11]: 207 nM
- concentration at 96 h [10]: 187 nM
- concentration at 96 h [11]: 193 nM
- concentration at 168 h [10]: 176 nM
- concentration at 168 h [11]: 204 nM
- concentration at 336 h [10]: 233 nM
- concentration at 336 h [11]: 269 nM
- concentration at 504 h [10]: 270 nM
- concentration at 504 h [11]: 311 nM
- concentration at 672 h [10]: 270 nM
- concentration at 672 h [11]: 312 nM
- concentration at 840 h [10]: 294 nM
- concentration at 840 h [11]: 361 nM
- concentration at 1008 h [10]: 235 nM
- concentration at 1008 h [11]: 209 nM
- concentration at 1344 h [10]: 272 nM
- concentration at 1344 h [11]: 314 nM
- concentration at 1680 h [10]: 247 nM
- concentration at 1680 h [11]: 206 nM
- concentration at 2016 h [10]: 193 nM
- concentration at 2016 h [11]: 161 nM
- concentration at 2352 h [10]: 158 nM
- concentration at 2352 h [11]: 111 nM
